Values quoted from earlier work in patent publication US6498171B2, “Hydroxyomeprazole compositions” (Sepracor Inc., priority 1998, dated 2002).

How the values were obtained:
isolated gastric glands = details: read-out: IC50, inhibitory effect on aminopyrine uptake
[1] = humans
[2] = poor metabolizers vs extensive metabolizers, serum

Row | IC50 (isolated gastric glands) | Cmax is at (time) [1] | serum half-life ([1]; highly variable) | 8-hour AUC, poor metabolizers relative to extensive metabolizers [2] | SMILES
1 | 33 µM | – | – | – | COc1ccc2[nH]c([S+]([O-])Cc3ncc(CO)c(OC)c3C)nc2c1 (racemic) [racemic hydroxyomeprazole]
2 | 0.48 µM | 0.5 to 3.5 h | 30 to 60 min | – | COc1ccc2[nH]c([S+]([O-])Cc3ncc(C)c(OC)c3C)nc2c1 (racemic) [racemic omeprazole, Omeprazole]
3 | – | – | – | more than 10 times higher | COc1ccc2nc(S(=O)(=O)Cc3ncc(C)c(OC)c3C)[nH]c2c1 [omeprazole sulfone]
